Data from ChEMBL document CHEMBL5331060, “Bisindole natural products: A vital source for the development of new anticancer drugs” (Eur J Med Chem, 2022).
Values after ≈ are worked out from the molar mass of the structure shown.

Columns and labels:
Assay type in all cases: functional, cell-based
[1] = tested on: PANC-1; test: Antiproliferative activity against human PANC-1 cells assessed as inhibition of cell growth incubated for 24 hrs by FMCA assay; conditions: PANC-1, 24 h
[2] = tested on: CAKI-2; test: Antiproliferative activity against human CAKI-2 cells assessed as inhibition of cell growth incubated for 24 hrs by SRB assay; conditions: CAKI-2, 24 h
[3] = Antiproliferative activity against human StMl1 1a cells assessed as inhibition of cell growth incubated for 24 hrs by SRB assay
[4] = tested on: MCF7; test: Antiproliferative activity against human MCF7 cells assessed as inhibition of cell growth incubated for 24 hrs by SRB assay; conditions: MCF7, 24 h
[5] = tested on: LS174T; test: Antiproliferative activity against human LS174T cells assessed as inhibition of cell growth incubated for 24 hrs by SRB assay
[6] = Antiproliferative activity against human MDA-MB cells assessed as inhibition of cell growth
[7] = tested on: HCT-8; test: Antiproliferative activity against human HCT-8 cells assessed as inhibition of cell growth
[8] = tested on: A549; test: Antiproliferative activity against human A549 cells assessed as inhibition of cell growth
[9] = tested on: PANC-1; test: Antiproliferative activity against human PANC-1 cells assessed as inhibition of cell growth incubated for 72 hrs by MTT assay; conditions: PANC-1, 72 h
[10] = tested on: ASPC1; test: Antiproliferative activity against human ASPC1 cells assessed as inhibition of cell growth incubated for 72 hrs by MTT assay; conditions: ASPC1, 72 h
[11] = tested on: MIA PaCa-2; test: Antiproliferative activity against human MIA PaCa-2 cells assessed as inhibition of cell growth incubated for 72 hrs by MTT assay; conditions: MIA PaCa-2, 72 h
[12] = tested on: BXPC-3; test: Antiproliferative activity against human BXPC-3 cells assessed as inhibition of cell growth incubated for 72 hrs by MTT assay; conditions: BXPC-3, 72 h
[13] = tested on: SW480; test: Antiproliferative activity against human SW480 cells assessed as inhibition of cell growth
[14] = tested on: SMMC-7721; test: Antiproliferative activity against human SMMC-7721 cells assessed as inhibition of cell growth
[15] = tested on: MCF7; test: Antiproliferative activity against human MCF7 cells assessed as inhibition of cell growth
[16] = tested on: HL-60; test: Antiproliferative activity against human HL-60 cells assessed as inhibition of cell growth
[17] = tested on: HCT-116; test: Antiproliferative activity against human HCT-116 cells assessed as inhibition of cell growth incubated for 24 hrs by MTT assay; conditions: HCT-116, 24 h
[18] = tested on: MDA-MB-231; test: Antiproliferative activity against human MDA-MB-231 cells assessed as inhibition of cell growth incubated for 72 hrs by MTT assay; conditions: MDA-MB-231, 72 h
[19] = Antiproliferative activity against human AV3 cells assessed as inhibition of cell growth incubated for 72 hrs by MTT assay; conditions: AV3, 72 h
[20] = tested on: Huh-7; test: Antiproliferative activity against human Huh-7 cells assessed as inhibition of cell growth incubated for 72 hrs by MTT assay; conditions: Huh-7, 72 h
[21] = Antiproliferative activity against vincristine-resistant human KB cells assessed as inhibition of cell growth incubated for 72 hrs by MTT assay
[22] = tested on: HCT-116; test: Antiproliferative activity against human HCT-116 cells assessed as inhibition of cell growth
[23] = tested on: NCI-H460; test: Antiproliferative activity against human NCI-H460 cells assessed as inhibition of cell growth by MTT assay
[24] = tested on: B16; test: Antiproliferative activity against B16 cells assessed as inhibition of cell growth by MTT assay; conditions: Mus musculus
[25] = tested on: CCRF-CEM; test: Antiproliferative activity against human CCRF-CEM cells assessed as inhibition of cell growth by MTT assay
[26] = tested on: HT-29; test: Antiproliferative activity against human HT-29 cells assessed as inhibition of cell growth incubated for 48 hrs by SRB assay; conditions: HT-29, 48 h

Compound `O=C1NCc2c1c1c3ccc(O)cc3[nH]c1c1[nH]c3ccccc3c21` has an IC50 [1] of 68 µM.
For `C/C=C1/CN2CC[C@@H]3c4ccccc4N4[C@H](C(=O)OC)[C@H]1C[C@H]2[C@]34/C=C/C1=COC[C@@H]2[C@H]1C[C@H]1c3c(c4ccccc4n3C)C[C@@H]2N1C`, the IC50 [2] was 2 µM, the IC50 [3] was 2 µM and the IC50 [4] was 2 µM. It also gave an IC50 [5] of 2 µM.
`CN1C[C@H](c2c[nH]c3c(Br)c(Br)cc(O)c23)NC[C@H]1c1c[nH]c2cc(Br)ccc12` gave an IC50 [6] of 1 µg/mL (≈ 1.71 µM), an IC50 [7] of 1 µg/mL (≈ 1.71 µM) and an IC50 [8] of 1 µg/mL.
For `N=C(N)NCCSc1nc(-c2c[nH]c3cc(Br)ccc23)cnc1-c1c[nH]c2cc(Br)ccc12`, the IC50 [9] was 18 µM, the IC50 [10] was 27 µM and the IC50 [11] was 26 µM. For the same compound, the IC50 [12] was 14 µM.
Work on `C/C=C1\CN(C)[C@H]2Cc3c([nH]c4ccccc34)[C@H](c3c(O)ccc4c5c([nH]c34)[C@]3(C(=O)OC)C[C@@H]4C[C@H](CC)[C@@H]3N(CC5)C4)C[C@H]1[C@]2(CO)C(=O)OC` yielded an IC50 [13] of 0.17 µM, an IC50 [14] of 0.17 µM and an IC50 [8] of 0.17 µM. The IC50 [15] was 0.17 µM and the IC50 [16] was 0.17 µM.
`O=C1C[C@@H]2c3ccc(O)c(O)c3[C@@]3(Nc4ccccc4C3=O)[C@@]23C(=O)c2ccccc2N13` showed an IC50 [17] of 78 µM.
Work on `C/C=C1/CCN2CC[C@@]34c5cc6c(cc5N(C)[C@]35OC[C@]4(C(=O)OC)[C@@H]1[C@H]25)O[C@@]12[C@@H]3C[C@H]4/C(=C\C)CN3CC[C@]1(C6)c1ccccc1N2[C@@H]4C(=O)OC` yielded an IC50 [18] of 9.8 µM, an IC50 [19] of 9.8 µM and an IC50 [20] of 9.8 µM.
Work on `C/C=C1/CCN2CC[C@@]34c5cc6c(cc5N(C)[C@]35OC[C@]4(C(=O)OC)[C@@H]1[C@H]25)O[C@@]12[C@@H]3C[C@H]4/C(=C\C)CN3CC[C@]1(C6)c1ccccc1N2[C@]4(CO)C(=O)OC` yielded an IC50 [18] of 9.8 µM, an IC50 [19] of 9.8 µM and an IC50 [20] of 9.8 µM.
For `O=C1NC(=O)c2c1c1c3ccccc3[nH]c1c1[nH]c3cc(O)ccc3c21`, the IC50 [21] was 2.28 µg/mL (≈ 6.68 µM).
`C=C1[C@H]2C[C@@H]3N(CC[C@@]34c3cccc5c3N(C[C@H]3[C@H]6C[C@@H]7N(CC[C@@]78c7ccccc7N[C@@]538)C[C@H]6CC)[C@@H]14)C[C@H]2CC` showed an IC50 [22] of 3.8 µM, an IC50 [8] of 3.8 µM and an IC50 [15] of 3.8 µM. The IC50 [16] was 3.8 µM.
In the case of `COC(=O)c1[nH]cc2c1[C@]1(CN(C)c3ccc(Cl)cc31)c1[nH]c3ccc(Cl)cc3c1-2`, the IC50 [23] is reported as 12 µg/mL (≈ 27.4 µM), the IC50 [24] is reported as 5 µg/mL (≈ 11.4 µM) and the IC50 [25] is reported as 4 µg/mL (≈ 9.13 µM).
For `C/C=C1/CN2CC[C@@]34C[C@H]5[C@@H]6C[C@H]7c8c(c9ccccc9n8C)C[C@@H]([C@@H]6CO[C@@]5(C)O[C@@]35[C@@H]2C[C@@H]1[C@@H](C(=O)OC)N5c1ccccc14)N7C`, the IC50 [2] was 2 µM, the IC50 [26] was 8 µM and the IC50 [3] was 2 µM. For the same compound, the IC50 [4] was 2 µM and the IC50 [5] was 2 µM.
